Measurements published in the supplement of paper PMC10307832.

How the values were obtained:
Assay in all cases: relative viability (nuclei count vs DMSO), 5 days (fraction); higher = more cells survive
NCI-H520 = test system: NCI-H520
Summary of the method: (§1)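 Relative viability divides the nuclei count in treated wells by that in vehicle wells. Lung cancer cell lines were seeded in 1536-well plates, dosed by pin tool the next day, and fixed and stained after 5 days in one step with final 0.05% Triton X-100, 1% formaldehyde and 1 ug/ml Hoechst. Dosing was a single drug or a fixed anchor-drug dose plus five library-drug doses (not always all listed) in √10 steps, and values are medians of duplicate plates imaged at 4×.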

NCI-H647 = test system: NCI-H647
Summary of the method: as §1

NCI-H2170 = test system: NCI-H2170
Summary of the method: as §1

NCI-H460 = test system: NCI-H460
Summary of the method: as §1

HOP-62 = test system: HOP-62
Summary of the method: as §1

NCI-H727 = test system: NCI-H727
Summary of the method: as §1

NCI-H2405 = test system: NCI-H2405
Summary of the method: as §1

NCI-H2023 = test system: NCI-H2023
Summary of the method: as §1

ChaGo-K-1 = test system: ChaGo-K-1
Summary of the method: as §1

NCI-H441 = test system: NCI-H441
Summary of the method: as §1

NCI-H1793 = test system: NCI-H1793
Summary of the method: as §1

NCI-H1437 = test system: NCI-H1437
Summary of the method: as §1

HCC-44 = test system: HCC-44
Summary of the method: as §1

LOU-NH91 = test system: LOU-NH91
Summary of the method: as §1

EMC-BAC-2 = test system: EMC-BAC-2
Summary of the method: as §1

SW 1573 = test system: SW 1573
Summary of the method: as §1

NCI-H650 = test system: NCI-H650
Summary of the method: as §1

NCI-H23 = test system: NCI-H23
Summary of the method: as §1

EPLC-272H = test system: EPLC-272H
Summary of the method: as §1

NCI-H2009 = test system: NCI-H2009
Summary of the method: as §1

LCLC-103H = test system: LCLC-103H
Summary of the method: as §1

NCI-H2347 = test system: NCI-H2347
Summary of the method: as §1

NCI-H2126 = test system: NCI-H2126
Summary of the method: as §1

SMILES: Cc1cnc(-c2cnc(NCCNc3ccc(C#N)cn3)nc2-c2ccc(Cl)cc2Cl)[nH]1 + CS(=O)(=O)N1CCN(Cc2cc3nc(-c4cccc5[nH]ncc45)nc(N4CCOCC4)c3s2)CC1 [Pictilisib] (partner 1 µM)
- relative viability (NCI-H520; first compound 0.08 µM): 0.286
- relative viability (NCI-H520; first compound 0.253 µM): 0.336
- relative viability (NCI-H520; first compound 0.8 µM): 0.346
- relative viability (NCI-H520; first compound 2.53 µM): 0.497
- relative viability (NCI-H647; first compound 0.08 µM): 0.451
- relative viability (NCI-H647; first compound 0.253 µM): 0.45
- relative viability (NCI-H647; first compound 0.8 µM): 0.366
- relative viability (NCI-H647; first compound 2.53 µM): 0.458
- relative viability (NCI-H2170; first compound 0.08 µM): 0.29
- relative viability (NCI-H2170; first compound 0.253 µM): 0.307
- relative viability (NCI-H2170; first compound 0.8 µM): 0.261
- relative viability (NCI-H2170; first compound 2.53 µM): 0.318
- relative viability (NCI-H460; first compound 0.08 µM): 0.243
- relative viability (NCI-H460; first compound 0.253 µM): 0.378
- relative viability (NCI-H460; first compound 0.8 µM): 0.318
- relative viability (NCI-H460; first compound 2.53 µM): 0.504
- relative viability (HOP-62; first compound 0.08 µM): 0.777
- relative viability (HOP-62; first compound 0.253 µM): 0.688
- relative viability (HOP-62; first compound 0.8 µM): 0.725
- relative viability (HOP-62; first compound 2.53 µM): 0.647
- relative viability (NCI-H727; first compound 0.08 µM): 0.462
- relative viability (NCI-H727; first compound 0.253 µM): 0.259
- relative viability (NCI-H727; first compound 0.8 µM): 0.378
- relative viability (NCI-H727; first compound 2.53 µM): 0.435
- relative viability (NCI-H2405; first compound 0.08 µM): 0.472
- relative viability (NCI-H2405; first compound 0.253 µM): 0.485
- relative viability (NCI-H2405; first compound 0.8 µM): 0.422
- relative viability (NCI-H2405; first compound 2.53 µM): 0.412
- relative viability (NCI-H2023; first compound 0.08 µM): 0.334
- relative viability (NCI-H2023; first compound 0.253 µM): 0.271
- relative viability (NCI-H2023; first compound 0.8 µM): 0.307
- relative viability (NCI-H2023; first compound 2.53 µM): 0.813
- relative viability (ChaGo-K-1; first compound 0.08 µM): 0.612
- relative viability (ChaGo-K-1; first compound 0.253 µM): 0.828
- relative viability (ChaGo-K-1; first compound 0.8 µM): 0.375
- relative viability (ChaGo-K-1; first compound 2.53 µM): 0.623
- relative viability (NCI-H441; first compound 0.08 µM): 0.486
- relative viability (NCI-H441; first compound 0.253 µM): 0.376
- relative viability (NCI-H441; first compound 0.8 µM): 0.428
- relative viability (NCI-H441; first compound 2.53 µM): 0.553
- relative viability (NCI-H1793; first compound 0.08 µM): 0.315
- relative viability (NCI-H1793; first compound 0.253 µM): 0.351
- relative viability (NCI-H1793; first compound 0.8 µM): 0.412
- relative viability (NCI-H1793; first compound 2.53 µM): 0.596
- relative viability (NCI-H1437; first compound 0.08 µM): 0.521
- relative viability (NCI-H1437; first compound 0.253 µM): 0.399
- relative viability (NCI-H1437; first compound 0.8 µM): 0.483
- relative viability (NCI-H1437; first compound 2.53 µM): 0.379
- relative viability (HCC-44; first compound 0.08 µM): 0.706
- relative viability (HCC-44; first compound 0.253 µM): 0.578
- relative viability (HCC-44; first compound 0.8 µM): 0.715
- relative viability (HCC-44; first compound 2.53 µM): 0.938
- relative viability (LOU-NH91; first compound 0.08 µM): 0.532
- relative viability (LOU-NH91; first compound 0.253 µM): 0.531
- relative viability (LOU-NH91; first compound 0.8 µM): 0.504
- relative viability (LOU-NH91; first compound 2.53 µM): 0.564
- relative viability (EMC-BAC-2; first compound 0.08 µM): 0.579
- relative viability (EMC-BAC-2; first compound 0.253 µM): 0.525
- relative viability (EMC-BAC-2; first compound 0.8 µM): 0.515
- relative viability (EMC-BAC-2; first compound 2.53 µM): 0.567
- relative viability (SW 1573; first compound 0.08 µM): 0.487
- relative viability (SW 1573; first compound 0.253 µM): 0.492
- relative viability (SW 1573; first compound 0.8 µM): 0.552
- relative viability (SW 1573; first compound 2.53 µM): 0.327
- relative viability (NCI-H650; first compound 0.08 µM): 0.936
- relative viability (NCI-H650; first compound 0.253 µM): 1.03
- relative viability (NCI-H650; first compound 0.8 µM): 0.916
- relative viability (NCI-H650; first compound 2.53 µM): 0.873
- relative viability (NCI-H23; first compound 0.08 µM): 0.511
- relative viability (NCI-H23; first compound 0.253 µM): 0.56
- relative viability (NCI-H23; first compound 0.8 µM): 0.535
- relative viability (NCI-H23; first compound 2.53 µM): 0.613
- relative viability (EPLC-272H; first compound 0.08 µM): 0.337
- relative viability (EPLC-272H; first compound 0.253 µM): 0.325
- relative viability (EPLC-272H; first compound 0.8 µM): 0.316
- relative viability (EPLC-272H; first compound 2.53 µM): 0.358
- relative viability (NCI-H2009; first compound 0.08 µM): 0.877
- relative viability (NCI-H2009; first compound 0.253 µM): 0.81
- relative viability (NCI-H2009; first compound 0.8 µM): 0.814
- relative viability (NCI-H2009; first compound 2.53 µM): 0.732
- relative viability (LCLC-103H; first compound 0.08 µM): 0.675
- relative viability (LCLC-103H; first compound 0.253 µM): 0.542
- relative viability (LCLC-103H; first compound 0.8 µM): 0.696
- relative viability (LCLC-103H; first compound 2.53 µM): 0.619
- relative viability (NCI-H2347; first compound 0.08 µM): 0.931
- relative viability (NCI-H2347; first compound 0.253 µM): 0.416
- relative viability (NCI-H2347; first compound 0.8 µM): 0.698
- relative viability (NCI-H2347; first compound 2.53 µM): 0.6
- relative viability (NCI-H2126; first compound 0.08 µM): 0.512
- relative viability (NCI-H2126; first compound 0.253 µM): 0.468
- relative viability (NCI-H2126; first compound 0.8 µM): 0.494
- relative viability (NCI-H2126; first compound 2.53 µM): 0.559
